Test results taken from publication PMC4802617 (Chinese Medicine, 2016).
Values joined by “and” are separate entries in the source; they are usually repeats but may differ in a detail not shown here. Identical values can stand only once. “Also recorded” adds a separate entry of the source. Counter-ions that a name gives are not always drawn. Like-named read-outs stand apart in the source and are kept apart here.

Assays:
[1] = molecular target: T1, CYP2E1 (Homo sapiens, UniProt P05181); settings: CYP2E1 ref 28; read-out: Ki, specific inhibitor/reported values; cited from earlier work
T1 construct: tissue Cypex Ltd. (UK); host or cells: pooled human liver microsomes, ten donors
T1 sequence (P05181 whole entry): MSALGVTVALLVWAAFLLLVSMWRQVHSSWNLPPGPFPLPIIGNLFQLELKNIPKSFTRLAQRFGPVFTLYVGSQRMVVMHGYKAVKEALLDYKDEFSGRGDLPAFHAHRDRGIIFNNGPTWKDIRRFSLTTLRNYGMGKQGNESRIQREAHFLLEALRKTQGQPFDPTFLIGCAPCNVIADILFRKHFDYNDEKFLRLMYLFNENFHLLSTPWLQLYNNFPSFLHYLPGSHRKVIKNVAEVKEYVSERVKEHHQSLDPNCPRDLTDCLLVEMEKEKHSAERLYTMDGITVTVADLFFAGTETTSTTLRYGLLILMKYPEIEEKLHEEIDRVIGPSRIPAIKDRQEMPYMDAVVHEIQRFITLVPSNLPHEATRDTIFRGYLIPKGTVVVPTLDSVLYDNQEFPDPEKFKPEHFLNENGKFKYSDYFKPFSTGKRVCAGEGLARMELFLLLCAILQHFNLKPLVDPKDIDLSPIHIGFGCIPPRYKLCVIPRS

[2] = molecular target: T2, CYP3A4 (Homo sapiens, UniProt P08684); assay: Kinetic analysis of STS metabolism by recombinant CYP3A4; assay type: in vitro ADME
T2 sequence (P08684 whole entry, canonical isoform): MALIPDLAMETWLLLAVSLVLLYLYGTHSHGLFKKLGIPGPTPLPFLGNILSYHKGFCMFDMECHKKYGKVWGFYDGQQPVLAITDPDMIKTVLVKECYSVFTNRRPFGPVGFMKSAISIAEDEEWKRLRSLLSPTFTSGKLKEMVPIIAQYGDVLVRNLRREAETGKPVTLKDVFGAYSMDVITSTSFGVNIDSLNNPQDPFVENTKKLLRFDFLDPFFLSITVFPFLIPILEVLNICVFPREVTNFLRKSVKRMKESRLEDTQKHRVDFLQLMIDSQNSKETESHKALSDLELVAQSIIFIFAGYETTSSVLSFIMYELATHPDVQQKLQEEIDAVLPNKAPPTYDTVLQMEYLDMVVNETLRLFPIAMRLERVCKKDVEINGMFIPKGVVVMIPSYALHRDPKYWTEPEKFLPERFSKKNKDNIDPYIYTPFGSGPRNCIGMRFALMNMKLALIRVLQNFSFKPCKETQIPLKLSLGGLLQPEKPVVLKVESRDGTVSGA
Procedure: The CYP isoform-specific probe reactions used were phenacetin O-deethylation (for CYP1A2), coumarin 7-hydroxylation (for CYP2A6), tolbutamide 4-hydroxylation (for CYP2C9), metoprolol α-hydroxylation (for CYP2D6), chlorzoxazone 6-hydroxylation (for CYP2E1), S-mephenytoin 4-hydroxylation (for CYP2C19), and midazolam 1-hydroxylation (for CYP3A4). […] Each reaction was initiated by addition of 1 mg/mL NADPH. The final incubations were performed in a shaking water bath at 37 °C for 30 min. The incubations were performed in triple, and the incubation conditions specific to each CYP isoform were within the linear range for the velocity of the reaction (incubation time as well as substrate and protein concentrations). […]
The incubation conditions consisted of substrate probe, HLMs (0.5 mg/mL) or CYP isoforms (10 pmol), and 0.1 M sodium phosphate buffer (pH 7.4) in a total volume of 0.2 mL. […] All values were expressed as the mean ± standard deviation (SD). […]
(§1) Values of P < 0.05 denoted significance in all cases. […] The activity of each CYP isoform was calculated by the MCR of its corresponding probe substrate to determine the inhibition of the CYP isoforms. […] The IC50 values were determined by analyzing the plot of the logarithm of the inhibitor concentration versus the percentage of activity remaining after inhibition, using the SPSS for Windows Version 11.5 (SPSS Inc., USA). […]

[3] = molecular target: T3, CYP1A2 (Homo sapiens, UniProt P05177); settings: in vivo; cited from earlier work
T3 sequence (P05177 1-516): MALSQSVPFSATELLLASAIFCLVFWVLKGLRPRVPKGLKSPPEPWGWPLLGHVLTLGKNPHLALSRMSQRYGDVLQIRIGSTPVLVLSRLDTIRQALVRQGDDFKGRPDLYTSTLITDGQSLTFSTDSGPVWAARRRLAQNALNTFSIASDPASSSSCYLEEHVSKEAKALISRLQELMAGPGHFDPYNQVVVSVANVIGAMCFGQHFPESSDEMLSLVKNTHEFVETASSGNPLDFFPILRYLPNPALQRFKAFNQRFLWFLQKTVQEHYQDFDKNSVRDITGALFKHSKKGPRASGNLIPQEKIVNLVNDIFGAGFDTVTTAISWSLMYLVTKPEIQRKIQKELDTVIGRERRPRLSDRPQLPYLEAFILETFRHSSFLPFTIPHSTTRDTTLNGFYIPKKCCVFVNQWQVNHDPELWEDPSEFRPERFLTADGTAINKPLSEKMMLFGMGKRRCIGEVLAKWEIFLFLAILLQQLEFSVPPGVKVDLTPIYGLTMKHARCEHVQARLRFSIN

[4] = molecular target: T3, CYP1A2; assay: Inhibition of phenacetin O-deethylation in HLMs; assay type: in vitro ADME; design: tissue Cypex Ltd. (UK); host or cells: pooled human liver microsomes, ten donors
Procedure: (§2) The CYP isoform-specific probe reactions used were phenacetin O-deethylation (for CYP1A2), coumarin 7-hydroxylation (for CYP2A6), tolbutamide 4-hydroxylation (for CYP2C9), metoprolol α-hydroxylation (for CYP2D6), chlorzoxazone 6-hydroxylation (for CYP2E1), S-mephenytoin 4-hydroxylation (for CYP2C19), and midazolam 1-hydroxylation (for CYP3A4). […] Each reaction was initiated by addition of 1 mg/mL NADPH. The final incubations were performed in a shaking water bath at 37 °C for 30 min. The incubations were performed in triple, and the incubation conditions specific to each CYP isoform were within the linear range for the velocity of the reaction (incubation time as well as substrate and protein concentrations). […] The reactions were stopped by adding 0.2 mL of ice-cold acetonitrile containing irbesartan (114.9 ng/mL) as the internal standard. The samples were vortexed for 5 min. After centrifugation (5415D centrifuge, Eppendorf, Germany) (12,000×g for 10 min), the supernatants were transferred and aliquots of 20 µL were injected into the HPLC–MS/MS system for analysis.
(§3) A pilot inhibitory analysis of each CYP isoform was performed to determine the potency of inhibition and to select CYP isoforms for further detailed study of their inhibitory activities. […] The substrates comprising phenacetin, coumarin, tolbutamide, metoprolol, chlorzoxazone, S-mephenytoin, and midazolam were employed at concentrations of 10, 5, 100, 7.5, 40, 100, and 5 µM, respectively. All incubation conditions were the same as those described above.
as §1

[5] = molecular target: T2, CYP3A4; assay: MCR of STS with recombinant CYP3A4 under inhibition by KET; assay type: in vitro ADME; settings: KET 1 µM
[6] = rats, cited from earlier work
[7] = molecular target: T4, CYP2C19 (Homo sapiens, UniProt P33261); assay: Inhibition of S-mephenytoin 4-hydroxylation in HLMs; assay type: in vitro ADME
T4 construct: tissue Cypex Ltd. (UK); host or cells: pooled human liver microsomes, ten donors
T4 sequence (P33261 whole entry): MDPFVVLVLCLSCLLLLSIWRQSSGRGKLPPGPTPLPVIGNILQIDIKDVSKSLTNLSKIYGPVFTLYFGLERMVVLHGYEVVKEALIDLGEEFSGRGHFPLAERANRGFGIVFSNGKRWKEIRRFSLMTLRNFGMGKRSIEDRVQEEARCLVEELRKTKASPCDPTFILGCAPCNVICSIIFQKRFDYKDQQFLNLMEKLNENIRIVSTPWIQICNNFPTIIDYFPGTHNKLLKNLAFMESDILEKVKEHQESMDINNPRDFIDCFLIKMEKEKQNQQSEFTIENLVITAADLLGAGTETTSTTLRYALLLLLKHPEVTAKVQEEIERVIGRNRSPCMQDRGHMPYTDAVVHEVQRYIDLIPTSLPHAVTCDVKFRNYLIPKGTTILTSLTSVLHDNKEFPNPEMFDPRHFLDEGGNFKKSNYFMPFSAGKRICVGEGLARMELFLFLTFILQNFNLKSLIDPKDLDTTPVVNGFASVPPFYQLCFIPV
Procedure: as §2, §3, §1

[8] = rats, intravenous 2 mg/kg, cited from earlier work
[9] = molecular target: T5, CYP2C9 (Homo sapiens, UniProt P11712); assay: Inhibition of tolbutamide 4-hydroxylation in HLMs; assay type: in vitro ADME
T5 construct: tissue Cypex Ltd. (UK); host or cells: pooled human liver microsomes, ten donors
T5 sequence (P11712 whole entry): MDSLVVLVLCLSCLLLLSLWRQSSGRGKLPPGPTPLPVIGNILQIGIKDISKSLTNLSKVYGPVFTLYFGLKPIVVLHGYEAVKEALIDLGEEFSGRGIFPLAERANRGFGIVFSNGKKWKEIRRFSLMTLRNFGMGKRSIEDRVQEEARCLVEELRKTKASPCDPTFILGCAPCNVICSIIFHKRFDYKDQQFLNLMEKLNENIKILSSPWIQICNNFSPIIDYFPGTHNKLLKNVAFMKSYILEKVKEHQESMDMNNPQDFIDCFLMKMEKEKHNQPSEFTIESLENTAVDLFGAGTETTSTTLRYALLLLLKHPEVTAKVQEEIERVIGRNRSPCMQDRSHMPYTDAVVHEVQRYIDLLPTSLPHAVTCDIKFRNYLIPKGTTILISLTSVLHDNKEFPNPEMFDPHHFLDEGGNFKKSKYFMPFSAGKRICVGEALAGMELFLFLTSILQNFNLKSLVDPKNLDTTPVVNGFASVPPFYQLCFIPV
Procedure: as §2, §3, §1

[10] = Effects of specific CYP inhibitors on metabolic clearance rate (MCR) of STS in HLMs; assay type: in vitro ADME, human; settings: STS 10 µM, in the presence of KET 1 µM
[11] = molecular target: T2, CYP3A4; assay: Inhibition of midazolam 1-hydroxylation in HLMs (IC50, Ki, Dixon plots); assay type: in vitro ADME; design: tissue Cypex Ltd. (UK); host or cells: pooled human liver microsomes, ten donors
Procedure: as §2, §3
Therefore, Dixon plots for the inhibition of CYP3A4 were determined by incubating the substrate probe at multiple concentrations with or without the test inhibitor at multiple concentrations with the HLMs and cofactors. The inhibition data obtained from the pilot experiments were used as a guide to generate appropriate probe substrate and test inhibitor concentrations for determination of the Ki values for each CYP isoform. The isoform-specific probe substrate concentrations used were 5–50 µM midazolam for CYP3A4.
(§4) Values of P < 0.05 denoted significance in all cases. […] The activity of each CYP isoform was calculated by the MCR of its corresponding probe substrate to determine the inhibition of the CYP isoforms. […] The IC50 values were determined by analyzing the plot of the logarithm of the inhibitor concentration versus the percentage of activity remaining after inhibition, using the SPSS for Windows Version 11.5 (SPSS Inc., USA). The inhibition data were fitted to different models of enzyme inhibition (competitive, noncompetitive, and uncompetitive) by nonlinear least-squares regression analysis using GraphPad Prism 5 software (GraphPad Co. Ltd., USA) to calculate the Ki values.

[12] = Kinetic analysis of STS metabolism by human liver microsomes; assay type: in vitro ADME
Procedure: as §2
The incubation conditions consisted of substrate probe, HLMs (0.5 mg/mL) or CYP isoforms (10 pmol), and 0.1 M sodium phosphate buffer (pH 7.4) in a total volume of 0.2 mL. […] All values were expressed as the mean ± standard deviation (SD). The mean intrinsic clearance rate (CLint) for the in vitro incubation was estimated by Vmax/Km.
as §4

[13] = molecular target: T6, CYP2D6 (Homo sapiens, UniProt P10635); assay: Inhibition of metoprolol α-hydroxylation in HLMs; assay type: in vitro ADME
T6 construct: tissue Cypex Ltd. (UK); host or cells: pooled human liver microsomes, ten donors
T6 sequence (P10635 whole entry): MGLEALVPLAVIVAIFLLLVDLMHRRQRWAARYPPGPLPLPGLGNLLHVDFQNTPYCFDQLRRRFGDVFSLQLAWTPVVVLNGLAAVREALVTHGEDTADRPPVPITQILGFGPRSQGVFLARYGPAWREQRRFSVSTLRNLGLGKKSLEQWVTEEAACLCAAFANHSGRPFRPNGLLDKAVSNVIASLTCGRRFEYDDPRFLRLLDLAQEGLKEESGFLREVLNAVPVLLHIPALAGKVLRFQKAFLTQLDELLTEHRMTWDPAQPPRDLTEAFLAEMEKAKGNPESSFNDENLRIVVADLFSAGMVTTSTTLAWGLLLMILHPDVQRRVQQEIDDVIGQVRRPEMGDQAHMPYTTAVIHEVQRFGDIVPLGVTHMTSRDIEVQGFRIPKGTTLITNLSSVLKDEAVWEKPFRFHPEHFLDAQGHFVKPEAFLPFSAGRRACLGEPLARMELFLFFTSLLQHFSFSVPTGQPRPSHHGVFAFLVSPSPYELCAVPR
Procedure: as §2, §3, §1

[14] = molecular target: T7, CYP2A6 (Homo sapiens, UniProt P11509); assay: Inhibition of coumarin 7-hydroxylation in HLMs; assay type: in vitro ADME
T7 construct: tissue Cypex Ltd. (UK); host or cells: pooled human liver microsomes, ten donors
T7 sequence (P11509 1-494): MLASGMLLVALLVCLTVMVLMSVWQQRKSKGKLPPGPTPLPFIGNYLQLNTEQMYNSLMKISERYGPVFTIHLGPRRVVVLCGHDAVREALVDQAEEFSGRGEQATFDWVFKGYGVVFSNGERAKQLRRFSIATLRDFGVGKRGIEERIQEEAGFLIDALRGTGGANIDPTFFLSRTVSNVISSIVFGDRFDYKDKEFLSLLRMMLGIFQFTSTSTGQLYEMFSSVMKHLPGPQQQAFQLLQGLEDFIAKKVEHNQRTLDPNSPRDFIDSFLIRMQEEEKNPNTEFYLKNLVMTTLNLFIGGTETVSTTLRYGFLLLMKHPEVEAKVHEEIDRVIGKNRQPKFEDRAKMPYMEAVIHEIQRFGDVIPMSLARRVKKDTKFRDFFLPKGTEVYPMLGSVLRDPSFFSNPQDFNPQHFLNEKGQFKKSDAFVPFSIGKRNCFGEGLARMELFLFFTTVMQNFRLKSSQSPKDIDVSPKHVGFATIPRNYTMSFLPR
Procedure: as §2, §3, §1

[15] = molecular target: T1, CYP2E1; assay: Inhibition of chlorzoxazone 6-hydroxylation in HLMs; assay type: in vitro ADME
Procedure: as §2, §3, §1

[16] = tested on: human CYP1A2 isoform; settings: specific human CYP1A2 isoform, competitive ref 32; cited from earlier work
[17] = molecular target: T3, CYP1A2; design: tissue Cypex Ltd. (UK); host or cells: pooled human liver microsomes, ten donors; settings: CYP1A2, pooled HLMs, competitive ref 32; cited from earlier work
[18] = molecular target: T5, CYP2C9; settings: cited from earlier work
[19] = classification of Kong et al., read-out: potency class of inhibitor by IC50

## Cc1ncsc1CCCl [CHL, chlormethiazole hydrochloride]
[1]
  Ki: 12 µM

## Cc1c(S(=O)(=O)O)oc2c1C(=O)C(=O)c1c-2ccc2c1CCCC2(C)C [STS, sodium tanshinone IIA sulfonate]
[2]; Fig. 2b, CYP3A4, printed in picture
  Vmax: 6.8
[2]; STS with CYP3A4, Vmax/Km
  in vitro CLint: 0.902 mL/nmol P450/min
[3]
  increase of CYP1A2 activity: 41.1%
[4]; STS 1–100 µM, HLMs
  inhibitory effect on CYP1A2 activity: minimal; also recorded: negligible; also recorded: not an inhibitor
[4]; STS 1–100 µM, phenacetin 10 µM, HLMs, read-out: IC50
  IC50: > 100 µM
[4]; [19]
  IC50: ≥ 50 µM
[5]; recombinant CYP3A4, STS 10 µM
  MCR of STS, of control value: 58.4%
[5]; recombinant CYP3A4, STS 50 µM
  MCR of STS, of control value: 29.4%
[6]; 4 h after the injection ref 15, 16
  plasma concentration: ≤ 20 ng/mL
[6]; after injection ref 15, 16
  t1/2: < 54 min
[7]; STS 1–100 µM, HLMs
  inhibitory effect on CYP2C19 activity: minimal; also recorded: negligible
[7]; STS 1–100 µM, S-mephenytoin 100 µM, HLMs, read-out: IC50
  IC50: > 100 µM
[7]; [19]
  IC50: ≥ 50 µM
[8]; 5 min after administration ref 15, 16
  maximal STS concentration in liver: > 10 µg/mL
[8]; 2 h after administration, other tissues ref 15, 16
  detection in other tissues: hardly detected
[8]; kidney ref 15, 16
  time after administration at which STS could be determined: 4 h
[8]; liver ref 15, 16
  time after administration at which STS could be determined: 12 h
[9]; STS 1–100 µM, HLMs
  inhibitory effect on CYP2C9 activity: minimal; also recorded: negligible
[9]; STS 1–100 µM, tolbutamide 100 µM, HLMs, read-out: IC50
  IC50: > 100 µM
[9]; [19]
  IC50: ≥ 50 µM
[10]
  MCR of STS, of control: 37.4%
[11]; HLMs, versus reported KET value
  Ki fold higher than that of KET: approximately 212 fold
[11]; STS 1–100 µM, midazolam 5 µM, HLMs, brackets = 95 % confidence interval, read-out: IC50
  IC50: 6.4 µM and 6.38 µM
[11]; [19]
  IC50: ≤ 10 µM
[11]; midazolam 1-hydroxylation in HLMs, Dixon / Lineweaver–Burk plots
  type of inhibition: competitive type of inhibition; also recorded: full competitive inhibition
[11]; midazolam 1-hydroxylation, HLMs, versus reported KET values
  IC50 fold higher than that of KET: 26.6–79.7 fold
[11]; midazolam 5–50 µM, STS 0–100 µM, HLMs, competitive model, brackets = 95 % confidence interval
  Ki: 3.18 µM
[12]; Fig. 2a, human liver microsomes
  Vmax: 0.9
[12]; STS metabolism, HLMs 0.5 mg/mL, mean ± SD
  Vmax: 0.9 ± 0.1 nmol/mg protein/min
[12]; human, human liver microsomes, pH 7.4
  Km: 54.8 ± 14.6 µM
[12]; human, human liver microsomes, pH 7.4, read-out: in vitro CLint
  microsomal CLint: 16 µL/min/mg
[13]; STS 1–100 µM, HLMs
  inhibitory effect on CYP2D6 activity: minimal; also recorded: negligible
[13]; STS 1–100 µM, metoprolol […], HLMs, read-out: IC50
  IC50: > 100 µM
[13]; [19]
  IC50: ≥ 50 µM
[14]; STS 1–100 µM, HLMs
  inhibitory effect on CYP2A6 activity: minimal; also recorded: negligible
[14]; STS 1–100 µM, coumarin 5 µM, HLMs, read-out: IC50
  IC50: > 100 µM
[14]; [19]
  IC50: ≥ 50 µM
[15]; STS 1–100 µM, HLMs
  inhibitory effect on CYP2E1 activity: minimal; also recorded: negligible
[15]; STS 1–100 µM, chlorzoxazone 40 µM, HLMs, read-out: IC50
  IC50: > 100 µM
[15]; [19]
  IC50: ≥ 50 µM

## Cc1coc2c1C(=O)C(=O)c1c-2ccc2c1CCCC2(C)C [tanshinone IIA]
[16]
  Ki: 0.05 µM
[17]
  Ki: 1.45 µM
[18]
  inhibition of CYP2C9: medium competitive inhibitor
